According to patent publication US20190359941A1, “SUBSTITUTED AZOLE DERIVATIVES FOR GENERATION, PROLIFERATION AND DIFFERENTIATION OF HEMATOPOIETIC STEM AND PROGENITOR CELLS” (NATIONAL UNIVERSITY OF SINGAPORE, priority 2016, published 2019):
“Also recorded” adds a separate entry of the source. Like-named read-outs stand apart in the source and are kept apart here.

Assays:
[1] = test system: CD34 cells; conditions: cited from earlier work
[2] = test system: hematopoietic progenitor cells (HPC: CD45+CD34+CD38−CD45RA−); assay: Ex vivo expansion of hematopoietic progenitor cells from non-enriched UCB mononuclear cells; conditions: for relative effectiveness in inducing ex vivo expansion of HPC/HSPC (in words): among all the compounds screened; for enhancement of HPC expansion compared to cytokine control: 11 days (FIG. 9A)
[3] = test system: CD45+ leukocytes of UCB-MNC; conditions: 5.0 μM; 72 hours / day 3; frozen-thawed MNC (FIG. 7)
Method: SB203580, DMSO and cytokines alone in serum-free expansion media (SFEM) served as the reference compound, vehicle and blank control, respectively. Data represents mean±SEM for n=3.
Annexin-V-FITC (Beckman Coulter, Inc., USA), 7-AAD (Beckman Coulter, Inc., USA) and CD45-PE-Cy7 were used for CD45+ cell viability analysis.
All compounds were assessed for their ability to maintain the viability of CD45+ leukocytes using Annexin V and 7-AAD. Induction of apoptosis in the CD45+ cells during ex vivo cultures limits expansion of HSPC.

[4] = test system: total nucleated cells (TNC); conditions: for expansion of TNC reduced, compared to 5.0 μM: 11 days (FIG. 9A)
Description: UCB was obtained through Singapore Cord Blood Bank (SCBB), from donated units failing to meet the criteria for clinical banking. Prior consent was obtained from the donating mothers and the Research Advisory Ethics Committee of the SCBB, along with the Institutional Review Boards of National University of Singapore (NUS), and Singapore General Hospital (SGH) approved the usage of the samples. Mononuclear cells (MNC) were isolated from the fresh UCB by density gradient centrifugation using Ficoll-Histopaque™ Premium (GE Healthcare, UK). Counted UCB-MNC was cryopreserved in 90% v/v autologous plasma with 10% v/v dimethyl-sulfoxide (DMSO) (Sigma Aldrich, USA) for subsequent usage. UCB-MNC was thawed using human serum albumin (25% v/v) (Health Sciences Authority, Singapore) and Dextran 40 (75% v/v) (Hospira, USA). […] For certain experiments, cell cultures were initiated with purified populations such as early (CD45+CD34+CD38−) or late (CD45+CD34+CD38+) progenitor cells at optimal plating concentration of 5.0×10^4 cells/ml or 2.0×10^6 cells/ml, respectively. Such pure populations were obtained by labeling the frozen-thawed, non-enriched UCB-MNC using fluorescence conjugated antibodies followed by fluorescence activated cell sorting (FACS). The substituted azole-based small molecules dissolved in DMSO were added to the cultures at an empirically determined optimal concentration of 5.0 μM. UCB-MNC cultures devoid of small molecules but supplemented with cytokines served as control, while cultures supplemented with cytokines and DMSO served as vehicle control.
Cell cultures for in vitro experiments were done in 6- or 24-well plates (BD Falcon, USA), while culturing for in vivo transplantation studies was carried out in T-175 flasks (Corning, USA). Cell cultures were maintained in a humidified, 5% carbon dioxide incubator at 37° C. for the required duration. For UCB expansion evaluation and animal experimentation, an established 10-11-day expansion protocol was used which included cytokine and small molecule replenishment on day 7. At completion of incubation, cells were aspirated from the culture-ware with subsequent rinsing by Dulbecco's phosphate buffered saline (DPBS) (Hyclone, USA). The extracted cells were counted using an automated differential hematology cell counter (COULTER® AcT™ diff Hematology Analyzer, Beckman Coulter Inc, USA) and re-suspended in DPBS for subsequent in vitro analysis or transplantation in mice.

[5] = test system: colony forming unit (CFU) - granulocyte, macrophage (GM); conditions: 5.0 μM; SFEM; 10 days (FIG. 9B)
Method: Colony-forming units (CFU) of granulocyte-monocyte (GM) from freshly thawed UCB-MNC or 11 days expanded cells of the mentioned cell cultures were evaluated. Duplicates of freshly thawed UCB-MNC (5,000 and 10,000 cells) and expanded cells (1,000 and 5,000 cells) were cultured in 35 mm petri dishes (BD Falcon, USA) in 1.1 mL of hematopoietic stem cell (HSC)-CFU complete media with erythropoietin (EPO) (Miltenyi Biotec, Germany) without any further media manipulation. After 14-16 days in culture in a humidified environment at 37° C. and 5% CO2, colonies were scored and pictured using a SZ61 Olympus microscope equipped with charge-coupled device (CCD) camera (Olympus Europa GmbH, Germany).

[6] = test system: UCB-MNC expanded cells; conditions: 5.0 μM; ACF; 11 days (FIG. 13E)
Method: UCB-MNC samples were fixed with modified Carnoy's fixative (Leica Biosystems, Germany) and placed onto glass microscope slides, and then dehydrated through an ethanol (Sigma-Aldrich, USA) series (70%, 85% and 100%) for 2 minutes followed by air-drying.
FISH assays were carried out using a panel of probes (Abbott Molecular, USA) comprising LSI D7S486 SpectrumOrange™/CEP 7 SpectrumGreen™, CEP 8 SpectrumAqua™/LSI MYC SpectrumOrange™, LSI CDKN2A SpectrumOrange™/CEP 9 SpectrumGreen™, LSI ABL1 SpectrumOrange™/BCR SpectrumGreen™ dual fusion translocation probe, LSI MLL dual color break-apart probe, LSI ETV6 SpectrumGreen™/RUNX1 SpectrumOrange™ extra signal dual color translocation probe, and LSI TP53 SpectrumOrange™/CEP 17 SpectrumGreen™ probe set. The FISH probes were applied to the fixed cells and co-denatured at 75° C., followed by an overnight hybridization at 37° C. Washes were performed and the slide was counterstained with DAPI anti-fade solution (Vectashield, Vector Laboratories, USA) and analyzed using an epi-fluorescence microscope (Leica, Germany).
Signals from 100 non-overlapping nuclei were enumerated for loss of LSI D7S486, trisomy 8, loss of CDKN2A, translocation involving ABL1 and BCR, MLL break-apart, translocation involving ETV6 and RUNX1, and loss of TP53. […]

[7] = test system: CD34+ cells; conditions: 5.0 μM; 11 days (FIG. 17H)
[8] = test system: HSC2 (CD45+CD34+CD38−CD45RA−CD90+CD49f+); assay: Ex vivo expansion of HSC2 from UCB-MNC; conditions: 5.0 μM; SFEM; over 10 days (FIG. 13C)
Description: Mononuclear cells (MNC) were isolated from the fresh UCB by density gradient centrifugation using Ficoll-Histopaque™ Premium (GE Healthcare, UK). Counted UCB-MNC was cryopreserved in 90% v/v autologous plasma with 10% v/v dimethyl-sulfoxide (DMSO) (Sigma Aldrich, USA) for subsequent usage. UCB-MNC was thawed using human serum albumin (25% v/v) (Health Sciences Authority, Singapore) and Dextran 40 (75% v/v) (Hospira, USA). […] For certain experiments, cell cultures were initiated with purified populations such as early (CD45+CD34+CD38−) or late (CD45+CD34+CD38+) progenitor cells at optimal plating concentration of 5.0×10^4 cells/ml or 2.0×10^6 cells/ml, respectively. Such pure populations were obtained by labeling the frozen-thawed, non-enriched UCB-MNC using fluorescence conjugated antibodies followed by fluorescence activated cell sorting (FACS). The substituted azole-based small molecules dissolved in DMSO were added to the cultures at an empirically determined optimal concentration of 5.0 μM. […]
Cell cultures were maintained in a humidified, 5% carbon dioxide incubator at 37° C. for the required duration. […] The extracted cells were counted using an automated differential hematology cell counter (COULTER® AcT™ diff Hematology Analyzer, Beckman Coulter Inc, USA) and re-suspended in DPBS for subsequent in vitro analysis or transplantation in mice. […]

[9] = IM-29 mediated expansion of UCB
[10] = 5.0 μM, SFEM, 10 days (FIG. 8C)

NC(=O)c1cccnc1 [NAM, nicotinamide]
increase of CD34 cells ([1]; over 21 days, Horwitz et al. 2014): 72 fold

CC(C)n1cnc2c(NCCc3ccc(O)cc3)nc(-c3csc4ccccc34)nc21 [SR-1, stemregenin-1]
median CD34 expansion ([1]; cultures lasting up to 15 days, Wagner et al. 2016): 330 fold

Cc1cccc(-c2oc(-c3ccc4ccccc4c3F)nc2-c2ccncc2)c1 [OZ-07, 2-(1-fluoronaphthalen-2-yl)-4-(pyridin-4-yl)-5-(m-tolyl)oxazole]
relative effectiveness in inducing ex vivo expansion of HPC/HSPC (in words) ([2]; 5.0 μM): not optimally active

Fc1ccc(-c2nc(-c3ccc4ccccc4c3)[nH]c2-c2ccncc2)cc1 [ZQX-33, 4-[2-(naphthalen-2-yl)-4(5)-(4-fluorophenyl)-1H-imidazol-5(4)-yl]pyridine]
HPC expansion capacity reduced relative to IM-29 ([2]; naphthalen-2-yl instead of 1-fluoronaphthalen-2-yl at C2, P<0.001): at least 2 fold

Fc1ccc(-c2nc(-c3ccc4ccccc4c3F)[nH]c2-c2ccncc2)cc1 [IM-29, 4-[2-(1-fluoronaphthalen-2-yl)-4(5)-(4-fluorophenyl)-1H-imidazol-5(4)-yl]pyridine]
acute toxicity to UCB cells (CD45+ viability) [3]: minimal toxicity | expansion of TNC reduced, compared to 5.0 μM ([4]; 1.0 μM IM-29, ACF): 0.83 fold | increase of total nucleated cells (TNC) compared to starting cell number ([4]; 5.0 μM, ACF, by day 11 (FIG. 11)): about 6 fold | expansion of TNC reduced, compared to 5.0 μM ([4]; 10 μM IM-29, ACF): 0.70 fold | increase of total nucleated cells (summary) [4, 9]: at least 5 fold | expansion of colony forming units (CFU) compared to non-cultured cells [5]: at least 100 fold | FISH results with probes relating to hematological malignancies [6]: normal results | CD34+ cell expansion, fold higher compared to cytokine control cultures [7]: approximately 1.9 fold | HSC2 expansion enhancement compared to cytokine-only control [8]: at least 7.5 fold | enhancement of HPC expansion compared to cytokine control ([2]; 1.0 μM, ACF): 2.7 fold | enhancement effect for HPC expansion compared to cytokine control ([2]; 5.0 μM, 10 days (FIG. 8A)): 8 fold | boost of HPC expansion on increasing culturing period from 7 days to 9 days ([2]; 5.0 μM, ACF (FIG. 11)): at least 5 fold | expansion of HPC, IM-29 added at both day 0 and day 7 (Group 1) ([2]; 5.0 μM, ACF, 10 days (FIG. 12)): ≥ 450 fold | enhancement of HPC expansion compared to cytokine control ([2]; 5.0 μM, ACF): 3.6 fold | HPC-associated expression of CD45+CD34+CD38−CD45RA− [2, 10]: about 68% | HPC-associated expression, fold higher than cytokine control [2, 10]: 3 fold | expansion of HPC, IM-29 added at both day 0 and day 7 (Group 1) ([2]; 5.0 μM, SFEM, 10 days (FIG. 12)): at least 750 fold | enhancement of HPC expansion compared to cytokine control ([2]; 10.0 μM, ACF): 2.4 fold | HPC expansion reduced compared to Group 1 when IM-29 not replenished on day 7 (Group 2) ([2]; IM-29 at day 0 only, 10 days (FIG. 12)): at least 0.7 fold | expansion of HPC (summary) [2, 9]: at least 1,000 fold | HPC expansion with IM-29 and a single cytokine ([2]; S+IM, T+IM, F+IM or IG+IM (data not shown)): minimal expansion | HPC expansion, fold higher than the four cytokines culture ([2]; S+T+F+IG+IM-29 vs four cytokines, ACF, 11 days (FIG. 1)): at least 4.7 fold | HPC expansion ([2]; S+T+F+IM-29 5.0 μM, ACF, 11 days (FIG. 1)): 1265.2±39.1 fold | HPC expansion enhancement effect vs S+T+F ([2]; S+T+F+IM-29 vs S+T+F, ACF, 11 days (FIG. 1)): 2.6 fold | HPC expansion ([2]; SCF+TPO+FLT-3L+IGFBP-2+IM-29 5.0 μM, ACF, 11 days (FIG. 1)): 1513.9±6.4 fold | relative effectiveness in inducing ex vivo expansion of HPC/HSPC (in words) ([2]; 5.0 μM): most effective of those tested; also recorded: most effective compound | augmentation of HPC expansion when IM-29 is added to basal cocktail ([2]; basal cocktail S+IG+T, ACF, 11 days (FIG. 1)): two-fold | HPC expansion of Group 1, fold higher than cytokine control Group 3 ([2]; irrespective of basal culture media, 10 days (FIG. 12)): at least 12 fold | effect on expanding HSPC, IM-29 added only at day 7 (Group 4) ([2]; not added at start of culture, 10 days (FIG. 12)): negligible effect | HPC expansion with IM-29 alone ([2]; without any cytokines (data not shown)): did not support the expansion of HPC

Cc1cccc(-c2nc(-c3ccc4ccccc4c3F)[nH]c2-c2ccncc2)c1 [IM-04, 4-[2-(1-fluoronaphthalen-2-yl)-4-(m-tolyl)-1H-imidazol-5-yl]pyridine]
relative effectiveness in inducing ex vivo expansion of HPC/HSPC (in words) ([2]; 5.0 μM): second most effective compound
